The source of these data is patent US7468186B2, “Polyomavirus cellular epitopes and uses therefor” (priority 2005, dated 2008).

Several values for one entry are separate records, joined by “and”; a condition that tells them apart may be missing. Equal entries are not always repeated. Ends that are not written are not given here.

Data set [1] concerns Jurkat A2.1 cells pulsed with peptide.
Data set [2] concerns splenocytes (CD8+ T cells). The format is cell-based, HHD-II transgenic mice.
The test system of data set [3] is CD8+ T lymphocytes of PBMC. In words: In vitro stimulation of human PBMC with peptide and rIL-2, then tetramer reagent labeling and flow analysis.
For the next data set, the target named is T1, HLA-A*02 (Homo sapiens, UniProt P04439, D140Y/D185E/D98H/E176V/E277Q/G131W/G231S/I119V/I121R/I166T/I218V/L300P/L318F/N151K/N90K/P208A/P217A/Q86G/Q94H/R138H/R169H/T345S).
T1 construct: Levels of surface HLA-A2 were measured by staining peptide-pulsed T2 cells with a fluorescent-labeled antibody to HLA-A2; endogenous in cells; host or cells: T2 cells (TAP-deficient)
In words: T2 stabilization/HLA-A*02 binding assay (flow cytometry of surface HLA-A2 on peptide-pulsed T2 cells). Conditions: peptide-pulsed TAP-deficient T2 cells, FIG. 1.

Setting [4] is: IVS with BKVp44, healthy HLA-A2 donors.
The mark [5] stands for this setting: healthy HLA-A2 volunteers, summary of Table IV.
The mark [6] stands for this setting: IVS with JCVp100, healthy HLA-A2 donors.
[7] abbreviates: kidney transplant patient KTx#02 PBMC, two weeks with peptide and IL-2, percentage of CD8+ lymphocytes, FIG. 12.

“AITEVECFL (Polyomavirus hominis 1) [BK44]”: the “recognition by transgenic murine CTL expanded with BK44” value in data set [1] was “recognized”. For the same sequence, the “IFN-γ secretion by CD8+ cells on peptide stimulation” value in data set [2] was “induced the secretion of IFN-γ by CD8^+ cells”. Also, the “BOTH (tetBKVp44 and tetJCVp36)” value in data set [3] (IVS with BKVp44, double tetramer labeling) was 1.79 and 0.02 and 5.7 and 0 (8×) and 0.17 and 13.2 and 2.63 and 3.38 and 0.1 and 6.1. Moreover, in data set [3] (setting [4]), the “% tetBKVp44” value was 1.89% and 0% (5×) and 6.2% and 0.33% and 0.13% and 14.7% and 3.14% and 3.78% and 0.1% and 0.07% and 6.7% and 0.01% and 0.63%; the “% tetJCVp36” value is 1.72% and 0.01% and 6.6% and 0% (4×) and 0.7% and 0.08% and 0.04% and 15% and 3.07% and 3.65% and 0.1% and 0.07% and 6.2% and 0.05%. Also, in data set [3] (setting [5]), the “individuals with cells positively stained by the BK44 tetramer reagent after in vitro stimulation” value is reported as 8 of 17 and the “individuals with cells positively stained by the JC36 tetramer reagent after in vitro stimulation” value is 8 of 17.

As to ILKEPVNGV [control HIV peptide], in data set [2], the “cells producing IFN-γ in response to peptide” value was 1.94% and 3.2%; the “proportion of cells responding with IFN-γ production” value amounted to 0.35%.

On to ILMWEAVTL [JC100], for which the “recognition by transgenic murine CTL expanded with BK108” value in data set [1] is “recognized”. In addition, in data set [2], the “cells producing IFN-γ in response to peptide” value is 17.29% and 22.2%. Moreover, the “BOTH (tetBKVp108 and tetJCVp100)” value in data set [3] (IVS with JCVp100, double tetramer labeling) was 0 (6×) and 0.26 and 5.17 and 0.04 and 4.3 and 0.9. Also, in data set [3] (setting [6]), the “% tetBKVp108” value was 0.04% (2×) and 0.05% and 0% (9×) and 0.16% and 0.06% and 0.48% and 4.59% and 0.13% and 5.1% and 0.03% and 0.8%; the “% tetJCVp100” value is 0.02% and 0% (11×) and 0.28% and 0.59% and 3.5% and 0.09% and 1.36% and 5.1% and 0.08% and 1.05%. Further, the “individuals positive for staining with the BK108 tetramer reagent after in vitro stimulation” value in data set [3] (setting [5]) is reported as 5 of 20. Moreover, in data set [3] (kidney transplant patient KTx#02 PBMC after in vitro stimulation, FIG. 13), the “tetramer reagent binding cells that bound both the BKV and JVC tetramer reagents” value turned out to be 63%. Also, in data set [3] (setting [7]), the “cells binding the BKV tetramer reagent after in vitro stimulation” value worked out at 4.4% and the “cells binding the JVC tetramer reagent after in vitro stimulation” value came out at 3.7%.

Consider “LLIKGGVEV (Polyomavirus hominis 1) [BK27b]”, for which the “HLA-A2 binding (increase in relative fluorescence intensity on T2 cells)” value with HLA-A*02 is “highest binding function”.

For LLMWEAVTV [BK108], the “result of cytotoxicity and ICC assays” value in data set [1] is reported as “positive results”.

With NLLMWEAVTV [BK107], in data set [1], the “result of cytotoxicity and ICC assays” value is “positive results”.

On to SITEVECFL [JC36], for which, in data set [1], the “recognition by transgenic murine CTL expanded with BK44” value was “recognized”.
